We go through four compounds from patent publication US8354372B2 (priority 2006, dated 2013).

pIC50: −log10 of the molar value.

The target in data set [1] is endoproteinase Glu-C (Endo Glu-C) (Staphylococcus aureus, UniProt P0C1U8). The conditions noted are these: isolated enzyme glu c, pH 8.
The conditions of data set [2]: human, plasma.
Data set [3] deals with bovine adrenal chromaffin cells. Type of data set: cell-based.
A further data set deals with CCI-rats. The conditions noted are these: rat, in vivo, po.
A further data set deals with α4β2 nAChR (Homo sapiens, UniProt P17787+P43681). Type of data set: cell-based.
Another data set addresses α4β4 nAChR (Homo sapiens, UniProt P30926+P43681). Type of data set: cell-based.
Data set [4] concerns the target homopentameric neuronal nAChR, α7 (Homo sapiens, UniProt P36544). Type of data set: cell-based. The conditions noted are these: 10 µM.
In a further data set the target is α3α5β4 nAChR (Homo sapiens, UniProt P30926+P32297). Type of data set: cell-based.
Another data set addresses α3α6β2 nAChR (Homo sapiens, UniProt P17787+P32297+Q15825). Type of data set: cell-based. The conditions noted are these: 30 µM.
The test system of another data set is α3-containing nAChRs. Type of data set: cell-based.
The target of data set [5] is α3, β4 subtype of the nAchR (Rattus norvegicus, UniProt P04757+P12392). The conditions noted are these: cited from earlier work.
For the next data set, the system named is α9, α10 nAchR. Conditions: cited from earlier work.
Data set [6] relates to streptozotocin-induced diabetic rat. The conditions noted are these: in vivo; cited from earlier work.
For data set [7], the system named is rat models of human neuropathic pain. The conditions noted are these: in vivo; cited from earlier work.
In data set [8] the test system is unmyelinated C-fiber axons in isolated segments of peripheral human nerves. The conditions noted are these: cited from earlier work.
The conditions of data set [9]: in vivo; cited from earlier work.
In data set [10] the test system is animal model of inflammatory pain. The conditions noted are these: in vivo; cited from earlier work.
Data set [11] addresses nAChR combination α3α5β4 expressed in Xenopus oocytes. Description: cell-based or functional assay.

α3α5β4 nAChR, sequence (P30926 whole entry, looked up): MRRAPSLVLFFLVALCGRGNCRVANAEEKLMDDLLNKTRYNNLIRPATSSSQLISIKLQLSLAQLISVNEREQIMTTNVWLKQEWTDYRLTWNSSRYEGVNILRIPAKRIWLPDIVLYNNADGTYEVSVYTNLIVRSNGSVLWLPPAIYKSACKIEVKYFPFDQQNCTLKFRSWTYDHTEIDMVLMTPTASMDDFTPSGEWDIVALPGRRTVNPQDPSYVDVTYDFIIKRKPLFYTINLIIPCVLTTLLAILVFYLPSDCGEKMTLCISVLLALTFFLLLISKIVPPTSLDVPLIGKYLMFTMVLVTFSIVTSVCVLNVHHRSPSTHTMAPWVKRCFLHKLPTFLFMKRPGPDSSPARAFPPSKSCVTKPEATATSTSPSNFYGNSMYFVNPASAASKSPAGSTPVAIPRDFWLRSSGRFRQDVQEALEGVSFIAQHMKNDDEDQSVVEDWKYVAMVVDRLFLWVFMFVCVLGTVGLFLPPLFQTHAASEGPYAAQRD
α3α5β4 nAChR, sequence (P32297 whole entry, looked up): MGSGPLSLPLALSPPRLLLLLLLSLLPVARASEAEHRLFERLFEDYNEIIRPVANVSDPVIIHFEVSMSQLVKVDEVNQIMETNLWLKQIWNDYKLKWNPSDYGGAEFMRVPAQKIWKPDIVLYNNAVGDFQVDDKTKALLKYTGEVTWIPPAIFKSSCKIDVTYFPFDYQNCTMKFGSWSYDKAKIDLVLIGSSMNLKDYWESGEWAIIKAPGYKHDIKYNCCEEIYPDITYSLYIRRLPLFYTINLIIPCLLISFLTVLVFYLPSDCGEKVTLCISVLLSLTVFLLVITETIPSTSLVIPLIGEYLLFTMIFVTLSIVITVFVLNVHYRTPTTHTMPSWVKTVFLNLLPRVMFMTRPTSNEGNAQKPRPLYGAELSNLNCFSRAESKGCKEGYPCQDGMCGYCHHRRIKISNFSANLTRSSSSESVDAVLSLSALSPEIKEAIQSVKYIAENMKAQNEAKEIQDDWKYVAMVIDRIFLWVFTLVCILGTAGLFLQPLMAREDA
α4β4 nAChR, sequence (P43681 29-627 limits assumed): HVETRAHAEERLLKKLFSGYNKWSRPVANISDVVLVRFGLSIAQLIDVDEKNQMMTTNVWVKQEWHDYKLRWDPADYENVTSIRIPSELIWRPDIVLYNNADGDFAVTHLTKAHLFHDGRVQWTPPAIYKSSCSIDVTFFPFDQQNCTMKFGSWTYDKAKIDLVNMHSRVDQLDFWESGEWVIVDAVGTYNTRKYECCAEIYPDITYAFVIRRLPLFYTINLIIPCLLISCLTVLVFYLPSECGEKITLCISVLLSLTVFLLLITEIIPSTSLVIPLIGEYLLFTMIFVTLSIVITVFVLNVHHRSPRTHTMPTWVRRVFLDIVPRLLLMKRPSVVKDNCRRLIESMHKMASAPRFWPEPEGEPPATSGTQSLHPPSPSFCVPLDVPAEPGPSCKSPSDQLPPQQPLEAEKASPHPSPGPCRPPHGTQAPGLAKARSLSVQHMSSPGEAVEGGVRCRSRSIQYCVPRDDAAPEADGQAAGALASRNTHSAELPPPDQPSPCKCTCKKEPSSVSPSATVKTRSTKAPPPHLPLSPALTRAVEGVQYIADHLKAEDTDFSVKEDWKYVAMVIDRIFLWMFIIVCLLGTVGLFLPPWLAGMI
α4β4 nAChR, sequence (P30926 22-498 limits assumed): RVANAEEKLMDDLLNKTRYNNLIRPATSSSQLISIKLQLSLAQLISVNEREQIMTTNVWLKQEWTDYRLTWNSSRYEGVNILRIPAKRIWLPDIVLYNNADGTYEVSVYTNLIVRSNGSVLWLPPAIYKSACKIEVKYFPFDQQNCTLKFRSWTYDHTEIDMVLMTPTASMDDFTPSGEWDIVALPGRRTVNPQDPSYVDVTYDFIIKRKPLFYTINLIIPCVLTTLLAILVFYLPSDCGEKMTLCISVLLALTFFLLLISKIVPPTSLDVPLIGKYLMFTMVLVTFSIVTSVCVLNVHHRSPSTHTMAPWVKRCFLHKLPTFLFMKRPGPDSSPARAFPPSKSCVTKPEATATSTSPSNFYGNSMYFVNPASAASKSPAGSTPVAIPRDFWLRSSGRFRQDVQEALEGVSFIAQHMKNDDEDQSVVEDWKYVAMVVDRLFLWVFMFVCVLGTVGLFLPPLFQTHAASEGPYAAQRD
α4β2 nAChR, sequence (P43681 29-627 limits assumed): as the sequence (P43681 29-627 limits assumed) above
α4β2 nAChR, sequence (P17787 26-502 limits assumed): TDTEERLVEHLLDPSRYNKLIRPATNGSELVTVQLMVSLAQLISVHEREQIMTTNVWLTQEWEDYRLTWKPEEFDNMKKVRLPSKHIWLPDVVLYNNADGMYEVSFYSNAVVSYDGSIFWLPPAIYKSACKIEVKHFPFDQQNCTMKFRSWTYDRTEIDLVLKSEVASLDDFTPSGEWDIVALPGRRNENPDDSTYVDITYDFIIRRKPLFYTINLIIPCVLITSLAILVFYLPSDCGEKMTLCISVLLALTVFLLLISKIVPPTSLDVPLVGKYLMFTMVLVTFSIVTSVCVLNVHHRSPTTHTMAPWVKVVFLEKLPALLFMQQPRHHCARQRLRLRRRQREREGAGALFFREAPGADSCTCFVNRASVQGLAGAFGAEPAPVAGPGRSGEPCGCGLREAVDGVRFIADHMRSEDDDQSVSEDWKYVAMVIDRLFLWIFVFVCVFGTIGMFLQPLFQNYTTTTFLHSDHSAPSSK
α3α6β2 nAChR, sequence (P32297 32-505 limits assumed): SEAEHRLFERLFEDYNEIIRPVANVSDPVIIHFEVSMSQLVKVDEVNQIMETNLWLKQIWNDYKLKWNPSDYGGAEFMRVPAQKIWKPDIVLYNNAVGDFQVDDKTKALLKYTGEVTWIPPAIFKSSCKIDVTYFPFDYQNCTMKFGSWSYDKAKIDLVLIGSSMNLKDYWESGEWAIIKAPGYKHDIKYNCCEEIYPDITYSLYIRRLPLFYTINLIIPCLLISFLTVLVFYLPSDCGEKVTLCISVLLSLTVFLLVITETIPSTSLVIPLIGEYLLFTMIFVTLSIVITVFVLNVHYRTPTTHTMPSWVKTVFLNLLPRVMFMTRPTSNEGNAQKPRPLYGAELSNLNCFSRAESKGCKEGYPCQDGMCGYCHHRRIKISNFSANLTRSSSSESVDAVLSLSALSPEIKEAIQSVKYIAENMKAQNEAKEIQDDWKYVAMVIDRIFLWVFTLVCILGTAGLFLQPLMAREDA
α3α6β2 nAChR, sequence (Q15825 26-494 limits assumed): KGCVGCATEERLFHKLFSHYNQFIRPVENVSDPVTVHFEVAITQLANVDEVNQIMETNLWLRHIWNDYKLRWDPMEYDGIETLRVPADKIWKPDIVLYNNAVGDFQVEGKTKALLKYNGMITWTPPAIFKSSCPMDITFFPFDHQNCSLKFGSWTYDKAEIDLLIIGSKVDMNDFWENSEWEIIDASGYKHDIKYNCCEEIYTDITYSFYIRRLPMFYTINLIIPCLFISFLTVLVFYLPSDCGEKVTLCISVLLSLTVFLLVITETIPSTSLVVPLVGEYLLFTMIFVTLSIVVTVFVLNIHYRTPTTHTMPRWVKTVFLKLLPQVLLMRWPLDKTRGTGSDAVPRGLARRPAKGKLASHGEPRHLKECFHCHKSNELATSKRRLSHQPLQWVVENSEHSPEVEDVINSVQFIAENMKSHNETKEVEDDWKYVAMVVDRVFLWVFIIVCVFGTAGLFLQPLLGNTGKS
α3α6β2 nAChR, sequence (P17787 26-502 limits assumed): as the sequence (P17787 26-502 limits assumed) above
homopentameric neuronal nAChR, α7, sequence (P36544 23-502 limits assumed): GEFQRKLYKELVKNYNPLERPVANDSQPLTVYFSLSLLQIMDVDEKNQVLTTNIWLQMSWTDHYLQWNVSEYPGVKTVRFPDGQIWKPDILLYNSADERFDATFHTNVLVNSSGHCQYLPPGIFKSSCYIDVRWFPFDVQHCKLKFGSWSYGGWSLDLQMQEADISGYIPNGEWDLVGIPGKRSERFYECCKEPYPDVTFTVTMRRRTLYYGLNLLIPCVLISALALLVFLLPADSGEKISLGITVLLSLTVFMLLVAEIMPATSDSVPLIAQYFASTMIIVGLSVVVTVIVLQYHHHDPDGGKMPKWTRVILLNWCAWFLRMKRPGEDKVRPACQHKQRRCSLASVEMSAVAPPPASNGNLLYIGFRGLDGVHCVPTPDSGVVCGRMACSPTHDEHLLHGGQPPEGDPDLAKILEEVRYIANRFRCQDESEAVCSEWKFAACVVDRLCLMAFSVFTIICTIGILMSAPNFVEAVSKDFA
endoproteinase Glu-C (Endo Glu-C), sequence (P0C1U8 69-336 limits assumed): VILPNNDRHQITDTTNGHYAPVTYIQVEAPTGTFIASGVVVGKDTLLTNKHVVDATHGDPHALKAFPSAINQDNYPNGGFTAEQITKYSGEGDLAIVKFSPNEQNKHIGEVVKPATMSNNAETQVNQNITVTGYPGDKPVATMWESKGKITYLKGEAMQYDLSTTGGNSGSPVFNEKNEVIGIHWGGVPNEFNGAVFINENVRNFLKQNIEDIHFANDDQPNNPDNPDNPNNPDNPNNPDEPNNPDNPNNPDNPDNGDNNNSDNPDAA

`CC(C)C[C@@H]1NC(=O)[C@H](CC(N)=O)NC(=O)[C@H](CO)NC(=O)[C@H](Cc2cnc[nH]2)NC(=O)[C@H](CCC(=O)O)NC(=O)[C@H](CC(C)C)NC(=O)[C@H](Cc2cnc[nH]2)NC(=O)[C@@H]2CSSC[C@H](NC(=O)CN)C(=O)N[C@@H](CSSC[C@@H](C(N)=O)NC1=O)C(=O)N[C@@H](CO)C(=O)N[C@@H](CC(N)=O)C(=O)N1CCC[C@H]1C(=O)N[C@@H](C(C)C)C(=O)N2` [MII]: the half-life (in general, how long it takes for the measured level to halve) in [1] was ~10 h; in data set [2], ~16 h.

For the compound `CC[C@H](C)[C@@H]1NC(=O)[C@H](CCC(=O)O)NC(=O)[C@@H]2CCCN2C(=O)[C@H](Cc2c[nH]cn2)NC(=O)[C@H](CC(=O)O)NC(=O)[C@H](Cc2ccc(O)cc2)NC(=O)[C@H](CC(N)=O)NC(=O)[C@@H]2CSSC[C@@H]3NC(=O)CNC(=O)CNC(=O)CNC(=O)[C@H](C)NC(=O)[C@H](C)NC(=O)CNC(=O)CNC(=O)[C@H](CSSC[C@H](NC3=O)C(=O)N[C@@H](CO)C(=O)N[C@@H](CC(=O)O)C(=O)N3CCC[C@H]3C(=O)N[C@@H](CCCNC(=N)N)C(=O)N2)NC1=O` [cVc1.1-6], the “inhibition of catecholamine release, activity relative to linear Vc1.1” value in [3] is reported as “identical, within experimental error”. The median effective dose (ED50) – broadly, the dose that gives a 50% effect, or the effect in half of the subjects – in the data set with CCI-rats is ~1 mg/kg.

Consider Vc1.1, for which the “inhibition of ACh-evoked currents” value on α4β2 nAChR is “failed to inhibit”. For the same compound, the “inhibition of ACh-evoked currents” value on α4β4 nAChR was “failed to inhibit”. Moreover, in data set [4], the “inhibition of the ACh-evoked current” value was found to be 14±2%. The “lower potency to inhibit α3α5β4” value at α3α5β4 nAChR is on record as > 5 fold. Also, the “inhibition of ACh-induced current amplitude” value against α3α6β2 nAChR is recorded as ~50%. In addition, in the data set with α3-containing nAChRs, the “antagonism of ACh-evoked currents” value was “did not antagonise ACh-evoked currents” and the “detectable response alone (>50 nA)” value is “nor elicit a detectable response alone”. Moreover, the pIC50 in data set [5] was 5.38. Further, in the data set on α9, α10 nAchR, the “affinity for α9, α10 nAchR relative to α3, β4 nAchR” value is recorded as “one hundred fold higher”. For the same compound, the pIC50 with α9, α10 nAchR (read-out: affinity for the α9, α10 nAchR) was 7.64. The “time after dosing at which anti allodynic effect was observed” value in data set [6] is ≤ 1 h. For the same compound, in data set [7], the “effect on neuropathic pain in three rat models” value is listed as “alleviate neuropathic pain” and the “functional recovery of injured neurons” value is given as “accelerate the functional recovery of injured neurons”. In addition, the “effect on nicotine-induced increase in axonal excitability” value in [8] is listed as “antagonize”. Besides, the “analgesic activity relative to Ziconotide” value in [9] is recorded as “more active than Ziconotide”. The “efficacy in an animal model of inflammatory pain” value in data set [10] is listed as “effective”.

As for α-conotoxin Vc1.1 (peptide), the potency to inhibit ACh-evoked current (fold lower potency) in data set [11] is > 5.
